Each structure is given as a SMILES string.

T1 sequence (P36544 23-502): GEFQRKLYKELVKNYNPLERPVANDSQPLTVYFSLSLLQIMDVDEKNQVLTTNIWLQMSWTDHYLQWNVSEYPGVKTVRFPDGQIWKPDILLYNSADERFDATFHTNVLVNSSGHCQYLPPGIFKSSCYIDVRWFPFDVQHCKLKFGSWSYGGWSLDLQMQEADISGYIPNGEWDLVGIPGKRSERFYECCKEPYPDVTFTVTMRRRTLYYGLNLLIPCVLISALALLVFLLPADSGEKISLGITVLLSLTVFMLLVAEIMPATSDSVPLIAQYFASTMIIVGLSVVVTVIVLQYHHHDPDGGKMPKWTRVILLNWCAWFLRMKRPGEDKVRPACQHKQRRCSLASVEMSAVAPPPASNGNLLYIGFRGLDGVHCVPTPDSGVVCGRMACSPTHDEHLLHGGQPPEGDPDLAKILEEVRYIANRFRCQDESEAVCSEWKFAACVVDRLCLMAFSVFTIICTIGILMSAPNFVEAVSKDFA

This test concerns the target T1, human α7 nAChR (Homo sapiens, UniProt P36544).
T1 construct: host or cells: GH4C1 cells (pituitary tumor, immortalized cell line)
Briefly: α7 nAChR FLIPR (Fluorometric Imaging Plate Reader) Ca2+ assay, agonist EC50. In kind it is cell-based. To be noted: GH4C1 cells stably transfected with human α7 nAChR; Fluo-4 Ca2+ fluorescence; Examples 194 to 205 tested as the HCl salt; read-out: pEC50 value (negative logarithm of the agonist EC50) (converted). Put shortly:
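GH4C1 cells stably expressing human α7 nAChR, loaded with 2 μM Fluo-4 for 45–60 min at 37 °C in HEPES buffer pH 7.3 with 2 mM CaCl2 and 2.5 mM probenecid. Peak calcium fluorescence (ex 488, em 510–580 nm) after compound addition fitted for agonist EC50, reported as pEC50.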
Turning to `Cc1ccc(C(=O)Nc2ccc(-c3nnc(NCCCN4CCCCC4)o3)cc2)cc1` [Example 181, 4-methyl-N-[4-(5-{[3-(1-piperidinyl)propyl]amino}-1,3,4-oxadiazol-2-yl)phenyl]benzamide], the EC50 was no more than 1 µM.
`Cc1cc(C(=O)Nc2ccc(-c3nnc(NCCCN4CCCCC4)o3)cc2)no1` [Example 183, 5-methyl-N-[4-(5-{[3-(1-piperidinyl)propyl]amino}-1,3,4-oxadiazol-2-yl)phenyl]-3-isoxazolecarboxamide]: the EC50 is no more than 1 µM.
With `O=C(Nc1ccc(-c2nnc(NCCCN3CCCCC3)o2)cc1)c1ccco1` [Example 185, N-[4-(5-{[3-(1-piperidinyl)propyl]amino}-1,3,4-oxadiazol-2-yl)phenyl]-2-furancarboxamide] the figure was no more than 1 µM; with `CCOc1cc(NC(=O)C2CCCCC2)ccc1-c1nnc(NCCCN2CCCCC2)o1` [Example 189, N-[3-(ethyloxy)-4-(5-{[3-(1-piperidinyl)propyl]amino}-1,3,4-oxadiazol-2-yl)phenyl]cyclohexane-carboxamide], no more than 1 µM; with `CCOc1cc(NC(=O)c2ccccc2)ccc1-c1nnc(NCCCN2CCCCC2)o1` [Example 190, N-[3-(ethyloxy)-4-(5-{[3-(1-piperidinyl)propyl]amino}-1,3,4-oxadiazol-2-yl)phenyl]benzamide], no more than 0.1 µM.
With `O=C(Nc1ccc(-c2nnc(NCCCN3CCCCC3)o2)cc1)C1CCOCC1` [Example 193, N-[4-(5-{[3-(1-piperidinyl)propyl]amino}-1,3,4-oxadiazol-2-yl)phenyl]tetrahydro-2H-pyran-4-carboxamide] the figure was no more than 1 µM; with `O=C(Nc1ccc(-c2nnc(NCCCN3CCOCC3)o2)cc1)c1c(F)cccc1F` [Example 194, 2,6-Difluoro-N-[4-(5-{[3-(4-morpholinyl)propyl]amino}-1,3,4-oxadiazol-2-yl)phenyl]benzamide], no more than 1 µM; with `O=C(Nc1ccc(-c2nnc(NCCCN3CCOCC3)o2)cc1)c1cccc(F)c1` [Example 195, 3-Fluoro-N-[4-(5-{[3-(4-morpholinyl)propyl]amino}-1,3,4-oxadiazol-2-yl)phenyl]benzamide], no more than 1 µM.
With `CCCC(=O)Nc1ccc(-c2nnc(NCCCN3CCOCC3)o2)c(OC)c1` [Example 199, N-[3-(Methyloxy)-4-(5-{[3-(4-morpholinyl)propyl]amino}-1,3,4-oxadiazol-2-yl)phenyl]butanamide] the figure was no more than 1 µM; with `CCCC(=O)Nc1ccc(-c2nnc(NCCCN(CC)CC)o2)c(OC)c1` [Example 200, N-[4-(5-{[3-(Diethylamino)propyl]amino}-1,3,4-oxadiazol-2-yl)-3-(methyloxy)phenyl]butanamide], no more than 1 µM; with `CCN(CC)CCCNc1nnc(-c2ccc(NC(=O)c3ccc(F)cc3)cc2OC)o1` [Example 202, N-[4-(5-{[3-(Diethylamino)propyl]amino}-1,3,4-oxadiazol-2-yl)-3-(methyloxy)phenyl]-4-fluorobenzamide], no more than 1 µM.
For `CCN(CC)CCCNc1nnc(-c2ccc(NC(=O)c3cccc(F)c3)cc2OC)o1` [Example 203, N-[4-(5-{[3-(Diethylamino)propyl]amino}-1,3,4-oxadiazol-2-yl)-3-(methyloxy)phenyl]-3-fluorobenzamide], the EC50 is no more than 1 µM.
With `COc1cc(NC(=O)c2cccc(F)c2)ccc1-c1nnc(NCCCN2CCOCC2)o1` [Example 204, 3-Fluoro-N-[3-(methyloxy)-4-(5-{[3-(4-morpholinyl)propyl]amino}-1,3,4-oxadiazol-2-yl)phenyl]benzamide] the figure was no more than 1 µM.
`CCN(CC)CCCNc1nnc(-c2ccc(NC(=O)c3cccc(F)c3)cc2)o1` [Example 209, N-[4-(5-{[3-(diethylamino)propyl]amino}-1,3,4-oxadiazol-2-yl)phenyl]-3-fluorobenzamidetrifluoroacetate]: the EC50 was no more than 1 µM.

The term EC50 denotes the concentration at which the effect is half-maximal.

The values are drawn from patent US20090105217A1, “2-PHENYL-5-AMINO-1,3,4-OXADIAZOLES AND THEIR USE AS NICOTINIC ACETYLCHOLINE RECEPTOR LIGANDS” (priority 2007, published 2009).
